pIC50: −log10 of the molar value. Converted amounts (≈) assume the structure as drawn. One block for each compound: values may come before it. The source made the active and inactive calls. Unless noted, the rule behind the calls is not given here.
Tests used:
[1] = system: Vero; assay: Cytotoxicity against african green monkey Vero cells up to 4.6 ug/ml after 48 hrs by neutral red assay; type: cell-based; details: chlorocebus sabaeus
[2] = system: Leishmania donovani; assay: Antileishmanial activity against axenic amastigote of Leishmania donovani after 72 hrs by alamar blue assay; type: functional, organism-based; details: for pIC50: read-out: IC50
[3] = system: Leishmania donovani; assay: Antileishmanial activity against promastigote of Leishmania donovani after 72 hrs by alamar blue assay; type: functional, organism-based; details: for pIC50: read-out: IC50
[4] = system: Cryptococcus neoformans; assay: Antifungal activity against Cryptococcus neoformans ATCC 90113 by CLSI method; type: functional, organism-based
[5] = system: Candida albicans; assay: Antifungal activity against Candida albicans ATCC 90028 by CLSI method; type: functional, organism-based
[6] = system: Aspergillus fumigatus; assay: Antifungal activity against Aspergillus fumigatus ATCC 204305 by CLSI method; type: functional, organism-based
[7] = system: Mycobacterium intracellulare; assay: Antibacterial activity against Mycobacterium intracellulare ATCC 23068 by alamar blue assay; type: functional, organism-based
[8] = system: Staphylococcus aureus; assay: Antibacterial activity against methicillin-resistant Staphylococcus aureus ATCC 33591 by CLSI method; type: functional, organism-based; details: for pIC50: read-out: IC50
[9] = system: Staphylococcus aureus; assay: Antibacterial activity against Staphylococcus aureus ATCC 29213 by CLSI method; type: functional, organism-based
[10] = Staphylococcus aureus, ATCC 33591

Compound: COc1cc(C(c2c[nH]c3ccccc23)c2c[nH]c3ccccc23)ccc1O
Activity [1]: Non-toxic | IC90 [2]: inactive | pIC50 ([2]; Leishmania donovani, 72 h): 4.12 | IC90 ([3]; Leishmania donovani, 72 h): 98.9 µM | pIC50 ([3]; Leishmania donovani, 72 h): 4.07

Compound: COc1ccc(C(c2c[nH]c3ccccc23)c2c[nH]c3ccccc23)cc1O
pIC50 [4]: 4.77 | MFC [4]: 27.2 µM (≈ 10 µg/mL) | MIC [4]: 27.2 µM (≈ 10 µg/mL) | Activity [5]: inactive | Activity [6]: inactive | IC50 [7]: Not Active | MBC [7]: inactive | MIC [7]: inactive | MBC [8]: inactive | MIC [8, 10]: 27.2 µM (≈ 10 µg/mL) | pIC50 [8, 10]: 4.91 | pIC50 [9]: 5.13 | MBC [9]: inactive | MIC [9]: 13.6 µM (≈ 5.01 µg/mL) | Activity [1]: Non-toxic | IC90 ([2]; Leishmania donovani, 72 h): 79.5 µM | pIC50 ([2]; Leishmania donovani, 72 h): 4.37 | IC90 ([3]; Leishmania donovani, 72 h): 95.6 µM | pIC50 ([3]; Leishmania donovani, 72 h): 4.07

Compound: COc1ccc2[nH]cc(C(c3ccc([N+](=O)[O-])o3)c3c[nH]c4ccc(OC)cc34)c2c1
Activity [1]: Non-toxic | IC50 [2]: Not Active | IC90 [2]: inactive | IC90 ([3]; Leishmania donovani, 72 h): 60 µM | pIC50 ([3]; Leishmania donovani, 72 h): 4.43

Compound: O=[N+]([O-])c1ccc(C(c2c[nH]c3ccc(I)cc23)c2c[nH]c3ccc(I)cc23)o1
IC50 [7]: Not Active | MBC [7]: inactive | MIC [7]: inactive | MBC [8]: inactive | MIC [8, 10]: 32.8 µM (≈ 20 µg/mL) | pIC50 [8, 10]: 4.95 | pIC50 [9]: 5.12 | MBC [9]: 16.4 µM (≈ 9.99 µg/mL) | MIC [9]: 16.4 µM (≈ 9.99 µg/mL) | Activity [1]: Non-toxic | IC90 ([2]; Leishmania donovani, 72 h): 28.9 µM | pIC50 ([2]; Leishmania donovani, 72 h): 4.60 | IC90 ([3]; Leishmania donovani, 72 h): 6.22 µM | pIC50 ([3]; Leishmania donovani, 72 h): 5.52

Compound: Oc1ccccc1C(c1c[nH]c2ccccc12)c1c[nH]c2ccccc12
pIC50 [4]: 4.83 | MFC [4]: inactive | MIC [4]: 59.2 µM (≈ 20 µg/mL) | Activity [5]: inactive | Activity [6]: inactive | IC50 [7]: Not Active | MBC [7]: inactive | MIC [7]: inactive | MBC [8]: inactive | MIC [8]: inactive | pIC50 [8, 10]: 4.44 | pIC50 [9]: 4.76 | MBC [9]: inactive | MIC [9]: 59.2 µM (≈ 20 µg/mL) | Activity [1]: Non-toxic | IC90 [2]: inactive | pIC50 ([2]; Leishmania donovani, 72 h): 4.02 | IC90 ([3]; Leishmania donovani, 72 h): 75.7 µM | pIC50 ([3]; Leishmania donovani, 72 h): 4.39

Compound: COc1ccc2[nH]cc(C(c3c4ccccc4cc4ccccc34)c3c[nH]c4ccc(OC)cc34)c2c1
Activity [1]: Non-toxic | IC90 [2]: inactive | pIC50 ([2]; Leishmania donovani, 72 h): 4.40 | IC90 ([3]; Leishmania donovani, 72 h): 64.9 µM | pIC50 ([3]; Leishmania donovani, 72 h): 4.46

Compound: COc1cc(C(c2c[nH]c3ccc(I)cc23)c2c[nH]c3ccc(I)cc23)ccc1O
pIC50 [4]: 5.41 | MFC [4]: inactive | MIC [4]: 32.3 µM (≈ 20 µg/mL) | Activity [5]: inactive | Activity [6]: inactive | IC50 [7]: Not Active | MBC [7]: inactive | MIC [7]: inactive | MBC [8]: inactive | MIC [8, 10]: 4.03 µM (≈ 2.5 µg/mL) | pIC50 [8, 10]: 5.68 | pIC50 [9]: 5.72 | MBC [9]: inactive | MIC [9]: 4.03 µM (≈ 2.5 µg/mL) | Activity [1]: Non-toxic | IC90 ([2]; Leishmania donovani, 72 h): 47.2 µM | pIC50 ([2]; Leishmania donovani, 72 h): 4.50 | IC90 ([3]; Leishmania donovani, 72 h): 37.9 µM | pIC50 ([3]; Leishmania donovani, 72 h): 4.68

Compound: COc1ccc2[nH]cc(C(c3ccc(O)c(OC)c3)c3c[nH]c4ccc(OC)cc34)c2c1
Activity [1]: Non-toxic | IC50 [2]: Not Active | IC90 [2]: inactive | IC50 [3]: Not Active | IC90 [3]: inactive

Compound: COc1ccc2[nH]cc(C(c3ccc(O)cc3)c3c[nH]c4ccc(OC)cc34)c2c1
Activity [1]: Non-toxic | IC90 ([2]; Leishmania donovani, 72 h): 76.3 µM | pIC50 ([2]; Leishmania donovani, 72 h): 4.37 | IC90 ([3]; Leishmania donovani, 72 h): 91 µM | pIC50 ([3]; Leishmania donovani, 72 h): 4.09

Compound: O=[N+]([O-])c1ccc(C(c2c[nH]c3ccc(I)cc23)c2c[nH]c3ccc(I)cc23)cc1
Activity [1]: Non-toxic | IC90 ([2]; Leishmania donovani, 72 h): 38.4 µM | pIC50 ([2]; Leishmania donovani, 72 h): 5.08 | IC90 ([3]; Leishmania donovani, 72 h): 10.2 µM | pIC50 ([3]; Leishmania donovani, 72 h): 5.10

pIC50 [4]: 5.25 | MIC [4]: 30.7 µM (≈ 20 µg/mL)
Compound: Brc1ccc(C(c2c[nH]c3ccc(I)cc23)c2c[nH]c3ccc(I)cc23)cc1
MFC [4]: 30.7 µM (≈ 20 µg/mL) | Activity [5]: inactive | Activity [6]: inactive | Activity [1]: Non-toxic | IC90 ([2]; Leishmania donovani, 72 h): 46.6 µM | pIC50 ([2]; Leishmania donovani, 72 h): 4.88 | IC90 ([3]; Leishmania donovani, 72 h): 8.47 µM | pIC50 ([3]; Leishmania donovani, 72 h): 5.35

Compound: COc1ccc2[nH]cc(C(c3cccc4ccccc34)c3c[nH]c4ccc(OC)cc34)c2c1
IC50 [7]: Not Active | MBC [7]: inactive | MIC [7]: inactive | IC50 [8]: Not Active | MBC [8]: inactive | MIC [8]: inactive | pIC50 [9]: 4.40 | MBC [9]: inactive | MIC [9]: inactive | Activity [1]: Non-toxic | IC90 [2]: inactive | pIC50 ([2]; Leishmania donovani, 72 h): 4.48 | IC90 ([3]; Leishmania donovani, 72 h): 82.9 µM | pIC50 ([3]; Leishmania donovani, 72 h): 4.18

Compound: Ic1ccc2[nH]cc(C(c3c4ccccc4cc4ccccc34)c3c[nH]c4ccc(I)cc34)c2c1
Activity [1]: Non-toxic | IC50 [2]: Not Active | IC90 [2]: inactive | IC50 [3]: Not Active | IC90 [3]: inactive

Compound: O=[N+]([O-])c1ccc(C(c2c[nH]c3ccccc23)c2c[nH]c3ccccc23)cc1
Activity [1]: Non-toxic | IC90 ([2]; Leishmania donovani, 72 h): 72.3 µM | pIC50 ([2]; Leishmania donovani, 72 h): 4.39 | IC90 ([3]; Leishmania donovani, 72 h): 54.3 µM | pIC50 ([3]; Leishmania donovani, 72 h): 4.80

— ChEMBL document CHEMBL2375321, “Discovery of 3,3'-diindolylmethanes as potent antileishmanial agents” (Eur J Med Chem, 2013)
